Reference: publication PMC10766610, “DCAF1-based PROTACs with activity against clinically validated targets overcoming intrinsic- and acquired-degrader resistance” (Nature Communications, 2024)
Like-named read-outs stand apart in the source and are kept apart here. Each block holds one compound with its values, some of them ahead of it.

Experiments:
DCAF1(WDR) [1] = molecular target: T1, DCAF1(WDR) (Homo sapiens, UniProt Q9Y4B6, E1398S); assay: SPR, surface immobilized DCAF1(WDR), binary compound binding; settings: for Kd: binary, compound alone, spread in brackets, read-out: SPR KD
T1 construct: His6 (C); made in house; host or cells: Sf9 insect cells (baculovirus), co-expressed with BirA
T1 sequence (Q9Y4B6 1073-1399 E1398S): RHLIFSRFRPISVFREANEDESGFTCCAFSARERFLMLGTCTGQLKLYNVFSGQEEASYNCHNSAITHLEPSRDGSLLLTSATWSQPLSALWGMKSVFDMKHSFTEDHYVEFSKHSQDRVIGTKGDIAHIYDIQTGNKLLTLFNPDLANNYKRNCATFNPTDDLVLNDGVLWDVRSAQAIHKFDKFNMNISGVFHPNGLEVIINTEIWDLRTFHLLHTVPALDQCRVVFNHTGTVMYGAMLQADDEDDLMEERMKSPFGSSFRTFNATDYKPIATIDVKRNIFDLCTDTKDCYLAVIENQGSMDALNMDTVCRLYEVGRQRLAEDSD

DCAF1(WDR) [2] = molecular target: T1, DCAF1(WDR); assay: DCAF1 TR-FRET competition assay, standard binary format; assay type: binding; settings: for IC50: binary
Protocol: Competition assay conditions consist of 20 µL total volume in white 384-well plates (Greiner), in 30 mM phosphate buffer pH 7.4 containing 140 mM NaCl, 0.01% Tween20, 1 mM TCEP and 1% final DMSO. Tested compounds at 14 different concentrations were pre-incubated at 22 °C for 30 min with a large excess of 10 µM human BTK (G389-S659) or 10 µM human BRD9-BD(130-250) in the cooperative assay or with buffer in standard binary assay. […] Samples were then incubated at 22 °C for 30 min before reading using a Tecan infinite M-1000 or PheraStar FSX (excitation 340 nm, emission 490 and 520 nm). DCAF1 protein was omitted in the negative control. IC50 fitting was carried out using an in-house developed software (Novartis Helios software application, unpublished, a publicly available alternative would be e.g., Graphpad Prism) using the methods described by Fomenko et al.[93] (regression algorithms for nonlinear dose-response curve fitting). Following normalization of activity values for the wells to % inhibition (% inhibition = [(high control-sample)/(high control-low control)] × 100). Data analysis could also be carried out using GraphPad Prism without prior normalization. The reported IC50 values are the average of at least two independent experiments.

[3] = Viability by FSC/SSC gate (flow cytometry) in TMD8 BTK-GFP/mCh cells; assay type: cell-based, human; set-up: Max dose w/ Gating Viability >25%: unit: µM; settings: human, TMD8 BTK-GFP/mCh cells, TMD8 BTK-GFP/mCh, 24 h
Protocol: (§1) For flow cytometry measurements, 25,000 exponentially growing TMD8 BTK-GFP/mCh cells were plated in 100 μL of each well of a 96-well plate and grown for 24 h. Cells were then dosed with corresponding compounds and doses from 10 mM DMSO stock for 24 h, after which GFP and mCherry fluorescence was read with a Beckmann Coulter Cytoflex. For competition experiment, both compounds were added at the same time and dosed for 24 h. Cells were gated based on Forward & Side Scatter and selection for Single cells using SSC-A vs. SSC-H. Further, the population of viable cells was defined by the forward & side-scatter characteristics of DMSO-treated cells. […] Effects on viability were measured by the reduction of the percentage of cells included in this viable-population gate with increasing doses of compound tested. Degradation of BTK was calculated based on subtracting background (BG) fluorescence of parental TMD8 signal via (GFP-BG)/(mCherry-BG) of viable cells. Median ratios of three technical (different wells) replicates were used to calculate daily averages. Each compound dose–response was generated via three biological replicates (different days of experiment). Degradation curve parameters (DC50 & Abs. DC50 & max. Deg) were extracted using GraphPad Prism’s 4-parameter logistic curve fitting.
(§2) The viability window was determined by measuring the GI50 of viability based on the percentage of cells included in the viable gate and comparing it to the DC50 of degradation. The fold-change difference describing this window is [GI50 Viability / DC50 Degradation], where values above 1 indicate a positive (lower DC50 degradation than AC50 viability) window.

TMD8 BTK-GFP/mCh cells = assay: as above; assay type: cell-based, human; set-up: Max dose w/ Gating Viability >25%: unit: µM; settings: TMD8 BTK-GFP/mCh, 24 h
Protocol: as §1, §2

BTK = BTK (Homo sapiens, UniProt Q06187); assay: BTK-GFP degradation by flow cytometry in TMD8 BTK-GFP/mCh cells; assay type: cell-based; set-up: performed with full-length BTK and endogenous DCAF1; expressed in transfected cells; host or cells: TMD8 cells, lentiviral, blasticidin-selected (TMD8 BTK-GFP/mCh); settings: TMD8 BTK-GFP/mCh, 24 h; for DC50: read-out: DC50 BTK-Degradation
BTK, sequence (Q06187 2-659 limits assumed): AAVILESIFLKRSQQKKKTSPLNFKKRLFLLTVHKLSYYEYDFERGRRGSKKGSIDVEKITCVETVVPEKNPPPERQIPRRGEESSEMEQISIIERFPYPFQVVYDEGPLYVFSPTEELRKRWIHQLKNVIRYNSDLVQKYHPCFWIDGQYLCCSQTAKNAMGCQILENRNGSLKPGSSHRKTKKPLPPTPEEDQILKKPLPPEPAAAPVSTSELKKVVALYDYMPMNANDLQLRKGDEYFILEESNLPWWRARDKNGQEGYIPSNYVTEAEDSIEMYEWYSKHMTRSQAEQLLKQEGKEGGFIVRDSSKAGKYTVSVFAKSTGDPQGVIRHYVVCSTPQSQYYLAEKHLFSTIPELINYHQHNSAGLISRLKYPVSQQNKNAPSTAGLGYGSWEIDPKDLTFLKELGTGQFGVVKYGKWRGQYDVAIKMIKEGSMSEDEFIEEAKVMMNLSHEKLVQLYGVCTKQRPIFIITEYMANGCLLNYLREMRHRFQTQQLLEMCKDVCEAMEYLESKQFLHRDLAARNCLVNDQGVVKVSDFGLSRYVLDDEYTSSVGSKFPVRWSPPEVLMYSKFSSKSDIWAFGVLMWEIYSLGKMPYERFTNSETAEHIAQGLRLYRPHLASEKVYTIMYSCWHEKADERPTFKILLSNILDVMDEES
Protocol: The bicistronic pLenti6 BTK-GFP-chysel-mCHERRY expression vector was cloned as described[92] using Gateway cloning with a pENTR-BTK plasmid lacking a STOP codon. TMD8 cells were then infected with lentiviral particles from this vector as described above and stably transfected cells were selected with blasticidin at a concentration of 10 μg/mL referred to as TMD8 BTK-GFP/mCh cells.
For flow cytometry measurements, 25,000 exponentially growing TMD8 BTK-GFP/mCh cells were plated in 100 μL of each well of a 96-well plate and grown for 24 h. Cells were then dosed with corresponding compounds and doses from 10 mM DMSO stock for 24 h, after which GFP and mCherry fluorescence was read with a Beckmann Coulter Cytoflex. For competition experiment, both compounds were added at the same time and dosed for 24 h. Cells were gated based on Forward & Side Scatter and selection for Single cells using SSC-A vs. SSC-H. Further, the population of viable cells was defined by the forward & side-scatter characteristics of DMSO-treated cells. To confirm cells outside of this population as non-viable, cells were plated and treated for 24 h, washed with PBS and stained for 30 min with two markers of early (Annexin-V) and late (LIVE/DEAD) apoptosis. Effects on viability were measured by the reduction of the percentage of cells included in this viable-population gate with increasing doses of compound tested. Degradation of BTK was calculated based on subtracting background (BG) fluorescence of parental TMD8 signal via (GFP-BG)/(mCherry-BG) of viable cells. Median ratios of three technical (different wells) replicates were used to calculate daily averages. Each compound dose–response was generated via three biological replicates (different days of experiment). Degradation curve parameters (DC50 & Abs. DC50 & max. Deg) were extracted using GraphPad Prism’s 4-parameter logistic curve fitting.

BRD9 = molecular target: T2, BRD9 (Homo sapiens, UniProt Q9H8M2); assay: Rescue of DBr-1 mediated BRD9 degradation by co-treatment, BRD9-HiBiT HEK293 cells; assay type: cell-based; set-up: host or cells: HEK293/BRD9-HiBiT knock-in; clone and BRD9-HiBiT/CAS9/FF clone; settings: (13) 1 µM, OICR8268 10 µM, BI-9564 10 µM
T2 sequence (Q9H8M2 1-597): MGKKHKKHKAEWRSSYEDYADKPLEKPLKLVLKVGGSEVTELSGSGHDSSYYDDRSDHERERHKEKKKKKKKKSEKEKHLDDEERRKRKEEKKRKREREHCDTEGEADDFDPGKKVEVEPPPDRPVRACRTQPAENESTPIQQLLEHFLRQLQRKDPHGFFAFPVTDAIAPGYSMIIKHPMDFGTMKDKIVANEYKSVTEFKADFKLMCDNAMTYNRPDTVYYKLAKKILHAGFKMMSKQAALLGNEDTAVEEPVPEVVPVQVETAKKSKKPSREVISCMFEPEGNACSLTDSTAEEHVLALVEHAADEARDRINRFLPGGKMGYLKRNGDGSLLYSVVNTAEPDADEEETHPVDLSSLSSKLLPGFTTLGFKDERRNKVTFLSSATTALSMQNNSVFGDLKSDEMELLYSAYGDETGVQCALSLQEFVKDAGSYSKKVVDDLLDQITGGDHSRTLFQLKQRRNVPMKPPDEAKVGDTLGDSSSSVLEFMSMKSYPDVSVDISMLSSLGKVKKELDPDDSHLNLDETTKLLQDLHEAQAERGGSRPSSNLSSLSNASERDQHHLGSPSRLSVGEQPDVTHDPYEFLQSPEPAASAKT
Protocol: Supplementary figure 4. Competition experiments with DBr-1 and DBr-1-N […]
a) BRD9-HiBiT signal detection of samples pretreated with either DMSO, 10µM OICR-8268, 1µM […]
Data represents average ± standard deviation from n=3 replicates. DC50 values and […]
maximal observed degradation are shown below. […]
b) Cell titer Glow assay of BRD9 HiBiT cells. Cells pretreated with either DMSO, 10µM OICR-8268, […]
Data represents average ± standard deviation from n=3 replicates.
Source data are provided as a Source Data file

BRD7 = molecular target: T3, BRD7 (Homo sapiens, UniProt Q9NPI1); assay: BRD7-HiBiT protein abundance luminescence assay in HEK293 cells; settings: read-out: rel. DC50 (BRD7), 2 h
T3 sequence (Q9NPI1 1-651): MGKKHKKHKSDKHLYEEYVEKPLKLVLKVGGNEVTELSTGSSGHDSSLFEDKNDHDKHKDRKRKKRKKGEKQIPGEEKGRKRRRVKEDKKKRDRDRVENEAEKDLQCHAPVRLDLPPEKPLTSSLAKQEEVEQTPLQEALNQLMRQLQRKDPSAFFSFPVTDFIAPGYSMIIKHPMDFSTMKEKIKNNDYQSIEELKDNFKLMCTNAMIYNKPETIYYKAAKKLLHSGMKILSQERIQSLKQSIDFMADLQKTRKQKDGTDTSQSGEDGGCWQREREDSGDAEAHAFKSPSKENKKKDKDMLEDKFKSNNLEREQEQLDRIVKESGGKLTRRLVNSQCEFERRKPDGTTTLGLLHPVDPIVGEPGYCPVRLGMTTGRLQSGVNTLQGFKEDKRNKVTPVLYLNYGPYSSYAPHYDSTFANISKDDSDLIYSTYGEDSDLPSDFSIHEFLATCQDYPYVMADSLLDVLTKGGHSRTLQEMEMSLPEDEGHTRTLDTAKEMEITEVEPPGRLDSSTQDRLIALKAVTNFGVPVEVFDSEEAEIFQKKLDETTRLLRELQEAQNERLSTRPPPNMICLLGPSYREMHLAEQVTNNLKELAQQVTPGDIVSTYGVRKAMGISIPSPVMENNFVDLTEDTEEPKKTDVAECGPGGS
Source text: HEK293/BRD9-HiBiT pools (PROMEGA # CS3023120) and HEK293/BRD7-HiBiT pools (PROMEGA # CS3023124) were purchased from Promega. We performed clonal selection for HEK293/BRD9-HiBiT cell line using single-cell sorting and screening for HiBiT expression using Nano-Glo HiBiT Lytic Detection System (Promega # N3030). The HEK293/BRD9-HiBiT clone and HEK293/BRD7-HiBiT pool to perform standard HiBiT assays.

[4] = compound alone, spread in brackets, read-out: TR-FRET Q. IC50

SMILES: Cc1c(NC(=O)N2CC(O)(CC(C)(C)C)C2)cc(F)cc1-c1ncnc2[nH]c(-c3cnn(CC(=O)N4CCC5(CCNCC5)CC4)c3)cc12 [compound 19]
GI50 at 24 h ([3]; read-out: GI50): > 25000 nM | Max dose w/ Gating Viability >25% (TMD8 BTK-GFP/mCh cells): 25 | max. BTK degradation (%) (BTK): 0% | DC50 (BTK): > 25000 nM

SMILES: Cc1c(NC(=O)c2ccc(C(C)(C)O)cc2F)cc(F)cc1-c1ncnc2[nH]c(-c3ccc(CN4CCC5(CCNCC5)CC4)cc3)cc12 [compound 18, reference compound]
GI50 at 24 h ([3]; read-out: Abs GI50): 9540 nM | GI50 at 24 h ([3]; read-out: GI50): 7560 nM | Max dose w/ Gating Viability >25% (TMD8 BTK-GFP/mCh cells): 25 | DC50 (BTK): 7890 nM

SMILES: NC(=O)C[C@H](NC(=O)c1c[nH]nc1-c1ccc(Cl)cc1F)c1ccc(F)c(Cl)c1 [OICR-8268]
effect of co-treatment on DBr-1 mediated BRD9 degradation (BRD9): did not affect the degradation efficacy of DBr-1

SMILES: COc1cc(-c2cn(C)c(=O)c3cnccc23)c(OC)cc1CN(C)CC(=O)NCCOCCOCCNc1cccc2c1C(=O)N(C1CCC(=O)NC1=O)C2=O (centres unmarked) [dBRD9]
DC50 (BRD7): > 10000 nM

More lines, now with the values ahead:

Kd (DCAF1(WDR) [1]): 50 nM | IC50 (DCAF1(WDR) [2]; [4]): 10 nM
SMILES: C#CCOCC(=O)N1CCN(c2ccc3c(NCCN)nc(C4(c5ccc(Cl)cc5)CCCCC4)nc3c2)CC1 [compound 16]

Kd (DCAF1(WDR) [1]): 20 nM | IC50 (DCAF1(WDR) [2]; [4]): 20 nM
SMILES: CC(=O)NCCOCCOCCOCCOCCOCCOCCC(=O)N1CCN(c2ccc3c(NCCN)nc(C4(c5ccc(Cl)cc5)CCCC4)nc3c2)CC1 [compound 15]

relative reduction in affinity compared to DBr-1, SPR (DCAF1(WDR) [1]): 27 fold | relative reduction in affinity compared to DBr-1, TR-FRET (DCAF1(WDR) [2]): 41 fold | IC50 (DCAF1(WDR) [2]; read-out: IC50 in TR-FRET assays (response to reviewers)): 812 nM
SMILES: COc1cc(-c2cn(C)c(=O)c3cnccc23)c(OC)cc1CN1CCC(OCCCCCC(=O)N2CCN(c3ccc4c(NCCN(C)C)nc(C5(c6ccc(Cl)cc6)CCCCC5)nc4c3)CC2)CC1 [DBr-1-N]
